The text below walks through data of patent EP1721601A1, “Use of taurine for enhancing lipid synthesis in the epidermis” (Henkel Kommanditgesellschaft auf Aktien, priority 2005, dated 2006).

“Also recorded” adds a separate entry of the source.

For series [1], the system named is Epidermismodelle. The experiment in a line: Epidermal synthesis of barrier lipids in epidermis models. The class given is cell-based. The method, then: Epidermismodelle wurden 12 Tage lang kultiviert. Nach 12 Tagen (t = 0) wurden die individuell entwickelten sogenannten Barrierelipide (Ceramide, Cholesterol, Fettsäuren, Cholesterolsulfate und Cholesterolester) quantifiziert. Anschließend wurde ein Teil der Epidermismodelle 5 Tage lang ohne Zusatz von Taurin weiterkultiviert. Ein anderer Teil der Epidermismodelle wurde 5 Tage lang […] Zusatz von 0,3 mM Taurin weiterkultiviert. Nach insgesamt 17 Tagen Kultivierungsdauer (t = 5) wurden erneut die Barrierelipide quantifiziert. […] Die in Tab. 3 gezeigten Unterschiede zu t = 5 waren statistisch signifikant (p<0,05). Tabelle 3: Einfluss von Taurin auf die epidermale Synthese von Barrierelipiden (Angaben der Menge an Barrierelipiden in Gew.-%, bezogen auf den Gesamtlipidgehalt der Epidermismodelle, Mittelwerte aus n = 4 Messungen (± Standardabweichung))

Series [2] relates to Interleukin 1-alpha (IL-1alpha). Nature of the series: Irritation markers in vitro: IL-1alpha release of SDS-damaged epidermis models. The class given is cell-based. The note with it: for IL-1alpha-Freisetzung: 1 h 0,18% SDS, rinsed, then 24 h topical emulsion (C: 0.1 Gew.-% Triamcinolonacetonid; E: 1 Gew.-% Taurin; B: no further treatment), mean +/- SEM, n=3, unbehandelt 15, Vehikel 387. As to the method: (§1) Anschließend wurden die Epidermismodelle abgespült und für weitere 24h unter topischer Applikation folgender Emulsionen inkubiert: C: Kortikoid-ratiopharm® Creme (0.1 Gew.-% Triamcinolonacetonid); D: 1,5 Gew.-% Behenylalkohol + 2,75 Gew.-% Arachidylalkohol; E: 1,5 Gew.-% Behenylalkohol + 2,75 Gew.-% Arachidylalkohol +1 Gew.-% Taurin. […] Die Daten repräsentieren die Mittelwerte +/-SEM (n=3).

Series [3] relates to Epidermismodelle. The experiment in a line: Irritation markers in vitro: viability and LDH release of SDS-damaged epidermis models. The class given is cell-based. The note with it: for LDH-Freisetzung / Vitalität: 1 h 0,18% SDS, rinsed, then 24 h topical emulsion (C: 0.1 Gew.-% Triamcinolonacetonid; E: 1 Gew.-% Taurin; B: no further treatment), mean +/- SEM, n=3; for LDH-Freisetzung: unbehandelt 0,22, Vehikel 1,95; for Vitalität: unbehandelt 100, Vehikel 66. The method, then:
as §1
(In general: LDH in the medium is a marker of cell lysis.)

Series [4] concerns epidermale Barrierefunktion. Nature of the series: Epidermal barrier function (TEWL) after repetitive SDS damage in vivo. An excerpt:
Anschließend wurden Öl-in-Wasser-Emulsionen mit 1,5 Gew.-% Behenylalkohol und 2,75 Gew.-% Arachidylalkohol (VAR1: 0 Gew.-% Taurin; VAR2: 1 Gew.-% Taurin) appliziert, oder die Haut verblieb unbehandelt (VAR3). Diese Behandlung wurde zweimal täglich an 5 Tagen durchgeführt. Der transepidermale Wasserverlust (TEWL) wurde jeweils vor der SDS-Schädigung mit einem […] (Courage & Khazaka, Köln, Germany) bestimmt. Die Daten wurden auf die t0-Werte normiert und ein dimensionsloser Wert "area under the curve" errechnet (siehe Tabelle 1). Die statistische Analyse der Daten basiert auf dem gepaarten Wilcoxon-Test. Die Daten repräsentieren die Mittelwerte (n=18). Tab. 2: Einfluss von Taurin auf Irritationsmarker in vitro

Series [5] deals with Prostaglandin E2 (PGE2). Nature of the series: Irritation markers in vitro: PGE2 release of SDS-damaged epidermis models. The class given is cell-based. The settings on record: for PGE2-Freisetzung: 1 h 0,18% SDS, rinsed, then 24 h topical emulsion (C: 0.1 Gew.-% Triamcinolonacetonid; E: 1 Gew.-% Taurin; B: no further treatment), mean +/- SEM, n=3, unbehandelt 0,84, Vehikel 1,40. As to the method:
as §1

Where [6] appears, read: incubation of skin models with Taurin, result in words.

For the molecule `NCCS(=O)(=O)O` [Taurin, 2-Aminoethansulfonsäure], the Cholesterolsulfat in series [1] (0,3 mM Taurin for 5 days (t = 5, 17 days culture), % of total lipid content, mean of n = 4 (± SD), without Taurin 0,6) is 1,0 (± 0,2) Gew.-%. Besides, in series [1] (0,3 mM Taurin for 5 days (t = 5, 17 days culture), % of total lipid content, mean of n = 4 (± SD), without Taurin 0,9), the Cholesterol-ester is listed as 1,6 (± 0,2) Gew.-%. In addition, the Fettsäuren in series [1] (0,3 mM Taurin for 5 days (t = 5, 17 days culture), % of total lipid content, mean of n = 4 (± SD), without Taurin 3,5) was 5,7 (± 1,5) Gew.-%. The Ceramide in series [1] (0,3 mM Taurin for 5 days (t = 5, 17 days culture), % of total lipid content, mean of n = 4 (± SD), without Taurin 7,1) is 11.7 (± 1,6) Gew.-%. In addition, the Cholesterol in series [1] (0,3 mM Taurin for 5 days (t = 5, 17 days culture), % of total lipid content, mean of n = 4 (± SD), without Taurin 9,9) is recorded as 11,0 (± 1,2) Gew.-%. The “Spiegel an Ceramiden, Cholesterol und freien Fettsäuren” value in series [1] (skin models with Taurin, result in words) is “in gleichem Ausmaß”. Moreover, the “epidermale Synthese von Barrierelipiden” value in series [1] (skin/epidermis models with Taurin, result in words, differences at t = 5 significant (p<0,05)) is listed as “in signifikantem Ausmaß die Synthese aller drei Klassen von Barrierelipiden; also recorded: Steigerung der epidermalen Synthese von Barrierelipiden”. In series [2], this molecule gave an IL-1alpha-Freisetzung of 288 ± 37 pg/mL. In addition, in series [2] (setting [6]), the “Ausschüttung von Interleukin-1-alpha” value is reported as “nahm die Ausschüttung von Interleukin-1-alpha und von Prostaglandin-E2 ab”. In addition, in series [3], the LDH-Freisetzung is given as 1,30 +/- 0,15 OD 492nm and the Vitalität was 82 +/- 2%. Besides, in series [3] (setting [6]), the “Integrität der Keratinozytenmembran” value was “stabilisierte sich” and the “Vitalität der Keratinozyten” value was “verbesserte sich”. The “TEWL "area under the curve", Mittelwert in % (Unbehandelt = 100 %)” value in series [4] (O/W emulsion with 1 Gew.-% Taurin after occlusive 0.75% SDS, twice daily on 5 days, n=18, Vehikel 62,5 %) was 30,3%. Also, the “transepidermaler Wasserverlust (TEWL), "area under the curve", Mittelwert” value in series [4] (O/W emulsion with 1 Gew.-% Taurin after occlusive 0.75% SDS, twice daily on 5 days, normalised to t0, n=18) worked out at 881932 arbitrary units. In series [4] (application of Taurin, result in words), the “Regeneration der Hautbarrierefunktion nach SDS-Schädigung” value was “signifikant beschleunigt”. Further, the “transepidermaler Wasserverlust (TEWL)” value in series [4] (topical application of Taurin after repeated SDS treatment of the skin, result in words) is “senkte den TEWL in signifikantem Ausmaß”. Further, the PGE2-Freisetzung in series [5] is recorded as 0,83 +/- 0,05 ng/ml. Also, in series [5] (setting [6]), the “Ausschüttung von Prostaglandin-E2” value is “nahm die Ausschüttung von Interleukin-1-alpha und von Prostaglandin-E2 ab”.

Turning to `CC1(C)O[C@@H]2C[C@H]3[C@@H]4CCC5=CC(=O)C=C[C@]5(C)[C@@]4(F)[C@@H](O)C[C@]3(C)[C@]2(C(=O)CO)O1` [Triamcinolonacetonid, reference compound], in series [2], the IL-1alpha-Freisetzung amounted to 292 ± 26 pg/mL. In series [3], the LDH-Freisetzung is reported as 1,19 +/- 0,16 OD 492nm and the Vitalität is 86 +/- 8%. For the same molecule, the PGE2-Freisetzung in series [5] was 0,30 +/- 0,05 ng/ml.
